Source: ChEMBL document CHEMBL5303761, “Data for DCP probe BI-3231” (2023)

Key:
[1] = molecular target: Angiotensin-converting enzyme (Homo sapiens) (UniProt P12821); experiment: ACE(HU_AMTCH400) Eurofins SafetyScreen44 (BI); conditions: Compound concentration 10.0 uM
[2] = molecular target: Beta-2 adrenergic receptor (Homo sapiens) (UniProt P07550); experiment: BETA2/HUM Eurofins SafetyScreen44 (BI); conditions: filed as antagonist, Compound concentration 10.0 uM
[3] = molecular target: Androgen receptor (Homo sapiens) (UniProt P10275); experiment: ANDROGEN/H Eurofins SafetyScreen44 (BI); conditions: Compound concentration 10.0 uM
[4] = molecular target: D(4) dopamine receptor (Homo sapiens) (UniProt P21917); conditions: Compound concentration 10.0 uM
Chain of D(4) dopamine receptor (Homo sapiens) (P21917 whole entry): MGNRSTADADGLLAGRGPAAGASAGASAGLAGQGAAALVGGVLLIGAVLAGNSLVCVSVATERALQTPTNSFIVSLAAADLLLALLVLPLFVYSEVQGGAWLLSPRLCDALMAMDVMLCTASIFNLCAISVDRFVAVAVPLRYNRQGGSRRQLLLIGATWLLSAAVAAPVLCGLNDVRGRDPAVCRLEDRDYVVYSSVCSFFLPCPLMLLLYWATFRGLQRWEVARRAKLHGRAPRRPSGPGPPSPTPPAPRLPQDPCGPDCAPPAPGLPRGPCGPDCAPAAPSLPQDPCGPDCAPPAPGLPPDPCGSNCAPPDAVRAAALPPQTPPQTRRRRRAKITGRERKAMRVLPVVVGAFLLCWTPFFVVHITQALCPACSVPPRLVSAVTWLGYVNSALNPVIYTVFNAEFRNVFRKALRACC

[5] = molecular target: T1, Alpha-2A adrenergic receptor (Homo sapiens) (UniProt P08913); conditions: Compound concentration 10.0 uM
T1 sequence (whole entry): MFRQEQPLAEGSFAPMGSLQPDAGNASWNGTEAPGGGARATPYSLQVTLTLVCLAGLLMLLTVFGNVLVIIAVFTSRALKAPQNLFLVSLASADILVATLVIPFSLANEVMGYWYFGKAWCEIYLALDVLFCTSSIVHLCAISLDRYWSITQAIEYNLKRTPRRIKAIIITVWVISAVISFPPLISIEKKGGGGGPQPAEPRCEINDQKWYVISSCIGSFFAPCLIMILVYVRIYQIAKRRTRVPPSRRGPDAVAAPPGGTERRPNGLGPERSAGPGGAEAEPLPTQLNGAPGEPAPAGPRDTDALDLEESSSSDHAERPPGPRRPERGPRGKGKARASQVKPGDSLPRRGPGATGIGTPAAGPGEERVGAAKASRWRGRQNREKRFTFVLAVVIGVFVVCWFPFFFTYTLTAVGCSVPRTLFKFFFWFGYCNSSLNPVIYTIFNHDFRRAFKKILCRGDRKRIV

[6] = molecular target: Beta-3 adrenergic receptor (Homo sapiens) (UniProt P13945); conditions: Compound concentration 10.0 uM
Chain of Beta-3 adrenergic receptor (Homo sapiens) (P13945 whole entry, looked up): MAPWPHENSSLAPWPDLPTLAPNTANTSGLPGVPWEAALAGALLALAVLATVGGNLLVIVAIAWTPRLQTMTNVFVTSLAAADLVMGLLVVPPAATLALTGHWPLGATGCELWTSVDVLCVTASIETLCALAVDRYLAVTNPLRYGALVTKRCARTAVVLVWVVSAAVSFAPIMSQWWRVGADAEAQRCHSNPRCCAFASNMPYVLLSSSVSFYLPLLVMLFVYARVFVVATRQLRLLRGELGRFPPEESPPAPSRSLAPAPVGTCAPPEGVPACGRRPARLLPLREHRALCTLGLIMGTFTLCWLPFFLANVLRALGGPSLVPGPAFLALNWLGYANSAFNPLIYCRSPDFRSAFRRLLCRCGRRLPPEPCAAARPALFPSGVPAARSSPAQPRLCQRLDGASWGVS

[7] = molecular target: D(1B) dopamine receptor (Homo sapiens) (UniProt P21918); conditions: Compound concentration 10.0 uM
Chain of D(1B) dopamine receptor (Homo sapiens) (P21918 whole entry): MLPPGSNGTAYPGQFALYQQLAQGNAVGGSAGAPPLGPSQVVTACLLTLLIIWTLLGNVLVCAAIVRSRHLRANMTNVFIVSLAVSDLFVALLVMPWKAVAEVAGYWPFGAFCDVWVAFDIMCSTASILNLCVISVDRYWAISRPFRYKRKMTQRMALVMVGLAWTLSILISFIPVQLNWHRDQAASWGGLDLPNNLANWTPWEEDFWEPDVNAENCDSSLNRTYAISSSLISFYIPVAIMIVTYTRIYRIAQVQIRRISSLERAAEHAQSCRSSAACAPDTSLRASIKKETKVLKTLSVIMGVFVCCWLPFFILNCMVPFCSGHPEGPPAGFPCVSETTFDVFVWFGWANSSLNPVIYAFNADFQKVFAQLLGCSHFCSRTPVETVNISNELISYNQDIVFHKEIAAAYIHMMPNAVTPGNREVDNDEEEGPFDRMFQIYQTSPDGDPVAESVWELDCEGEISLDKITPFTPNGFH

[8] = molecular target: Sodium-dependent noradrenaline transporter (Homo sapiens) (UniProt P23975); conditions: Compound concentration 10.0 uM
Chain of Sodium-dependent noradrenaline transporter (Homo sapiens) (P23975 whole entry): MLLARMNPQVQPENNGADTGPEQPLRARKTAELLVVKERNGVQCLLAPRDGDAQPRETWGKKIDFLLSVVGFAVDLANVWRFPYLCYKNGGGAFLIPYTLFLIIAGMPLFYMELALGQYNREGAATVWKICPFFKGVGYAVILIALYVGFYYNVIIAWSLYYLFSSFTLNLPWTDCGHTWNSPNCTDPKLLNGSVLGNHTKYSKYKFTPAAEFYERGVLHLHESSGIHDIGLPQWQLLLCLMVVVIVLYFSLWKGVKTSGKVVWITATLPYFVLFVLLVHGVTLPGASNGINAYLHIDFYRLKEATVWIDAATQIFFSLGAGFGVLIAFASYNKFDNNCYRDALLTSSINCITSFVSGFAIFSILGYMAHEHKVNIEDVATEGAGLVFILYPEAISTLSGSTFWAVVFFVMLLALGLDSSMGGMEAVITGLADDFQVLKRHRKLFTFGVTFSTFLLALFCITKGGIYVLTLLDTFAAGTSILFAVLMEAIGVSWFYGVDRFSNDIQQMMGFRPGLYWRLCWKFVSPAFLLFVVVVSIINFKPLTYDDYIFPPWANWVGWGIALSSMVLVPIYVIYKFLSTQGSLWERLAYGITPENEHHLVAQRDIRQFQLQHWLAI

[9] = molecular target: T1, Alpha-2A adrenergic receptor (Homo sapiens); experiment: ALPHA2A/HU Eurofins SafetyScreen44 (BI); conditions: Compound concentration 10.0 uM
[10] = molecular target: Alpha-1D adrenergic receptor (Homo sapiens) (UniProt P25100); conditions: Compound concentration 10.0 uM
Chain of Alpha-1D adrenergic receptor (Homo sapiens) (P25100 whole entry): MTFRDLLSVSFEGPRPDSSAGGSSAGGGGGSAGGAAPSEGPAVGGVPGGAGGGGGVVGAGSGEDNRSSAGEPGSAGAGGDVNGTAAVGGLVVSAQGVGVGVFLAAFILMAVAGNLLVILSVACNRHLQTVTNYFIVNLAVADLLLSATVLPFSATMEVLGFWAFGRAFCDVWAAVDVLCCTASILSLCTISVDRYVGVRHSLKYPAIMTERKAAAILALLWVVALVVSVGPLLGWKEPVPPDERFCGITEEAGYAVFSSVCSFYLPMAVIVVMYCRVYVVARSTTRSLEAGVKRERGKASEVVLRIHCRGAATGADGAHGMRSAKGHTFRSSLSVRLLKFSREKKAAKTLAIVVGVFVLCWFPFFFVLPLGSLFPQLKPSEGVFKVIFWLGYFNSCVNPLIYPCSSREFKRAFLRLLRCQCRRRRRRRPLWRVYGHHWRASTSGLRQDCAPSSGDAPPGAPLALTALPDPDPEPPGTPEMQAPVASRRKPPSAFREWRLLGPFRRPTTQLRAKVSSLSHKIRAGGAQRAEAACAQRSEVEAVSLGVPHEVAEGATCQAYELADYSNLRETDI

[11] = molecular target: D(3) dopamine receptor (Homo sapiens) (UniProt P35462); conditions: Compound concentration 10.0 uM
Chain of D(3) dopamine receptor (Homo sapiens) (P35462 whole entry): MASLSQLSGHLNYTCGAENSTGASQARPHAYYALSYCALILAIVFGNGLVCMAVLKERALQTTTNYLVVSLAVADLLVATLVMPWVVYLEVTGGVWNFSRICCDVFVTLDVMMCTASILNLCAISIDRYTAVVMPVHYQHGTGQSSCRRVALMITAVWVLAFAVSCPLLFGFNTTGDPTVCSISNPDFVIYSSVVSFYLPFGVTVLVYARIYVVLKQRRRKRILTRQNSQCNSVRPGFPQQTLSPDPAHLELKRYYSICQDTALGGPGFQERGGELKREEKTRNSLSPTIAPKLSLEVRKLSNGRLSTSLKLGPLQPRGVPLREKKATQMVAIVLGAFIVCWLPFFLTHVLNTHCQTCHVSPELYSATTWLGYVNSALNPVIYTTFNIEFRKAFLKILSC

[12] = molecular target: Histamine H1 receptor (Homo sapiens) (UniProt P35367); conditions: Compound concentration 10.0 uM
Chain of Histamine H1 receptor (Homo sapiens) (P35367 whole entry): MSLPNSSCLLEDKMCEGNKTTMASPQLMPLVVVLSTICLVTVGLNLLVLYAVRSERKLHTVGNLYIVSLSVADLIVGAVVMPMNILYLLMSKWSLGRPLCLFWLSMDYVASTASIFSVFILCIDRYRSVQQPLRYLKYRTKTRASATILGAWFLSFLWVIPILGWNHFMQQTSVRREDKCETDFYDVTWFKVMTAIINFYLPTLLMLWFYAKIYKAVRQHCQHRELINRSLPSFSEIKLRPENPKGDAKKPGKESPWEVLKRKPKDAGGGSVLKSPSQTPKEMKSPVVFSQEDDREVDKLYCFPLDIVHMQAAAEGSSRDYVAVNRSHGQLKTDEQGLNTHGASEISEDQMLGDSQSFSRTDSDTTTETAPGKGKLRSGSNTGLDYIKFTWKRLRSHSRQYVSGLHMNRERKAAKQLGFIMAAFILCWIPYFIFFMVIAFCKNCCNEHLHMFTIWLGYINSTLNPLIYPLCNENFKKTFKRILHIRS

[13] = molecular target: Neuronal acetylcholine receptor; alpha4/beta2 (Homo sapiens) (UniProt P17787+P43681); experiment: N_NEURO_A4B2 Eurofins SafetyScreen44 (BI); format: protein-complex assay; conditions: filed as agonist, Compound concentration 10.0 uM
[14] = molecular target: Delta-type opioid receptor (Homo sapiens) (UniProt P41143); experiment: DELTA2/H Eurofins SafetyScreen44 (BI); conditions: Compound concentration 10.0 uM
Chain of Delta-type opioid receptor (Homo sapiens) (P41143 whole entry): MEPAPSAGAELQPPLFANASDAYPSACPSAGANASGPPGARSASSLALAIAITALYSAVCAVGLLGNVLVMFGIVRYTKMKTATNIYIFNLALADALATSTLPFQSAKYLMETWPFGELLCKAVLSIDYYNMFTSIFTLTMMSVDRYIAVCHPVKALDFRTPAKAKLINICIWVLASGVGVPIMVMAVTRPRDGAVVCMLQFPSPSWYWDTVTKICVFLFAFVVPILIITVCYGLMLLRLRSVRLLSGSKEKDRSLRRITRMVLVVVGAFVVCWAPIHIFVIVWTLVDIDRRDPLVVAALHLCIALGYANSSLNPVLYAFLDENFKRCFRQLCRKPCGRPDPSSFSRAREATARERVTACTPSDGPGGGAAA

[15] = molecular target: Sodium-dependent dopamine transporter (Homo sapiens) (UniProt Q01959); experiment: DATRANS/HUM Eurofins SafetyScreen44 (BI); conditions: Compound concentration 10.0 uM
[16] = molecular target: Sodium-dependent noradrenaline transporter (Homo sapiens) (UniProt P23975); experiment: NEUP/H Eurofins SafetyScreen44 (BI); conditions: Compound concentration 10.0 uM
[17] = molecular target: cGMP-inhibited 3',5'-cyclic phosphodiesterase 3A (Homo sapiens) (UniProt Q14432); experiment: PDE3A Eurofins SafetyScreen44 (BI); conditions: Compound concentration 10.0 uM
[18] = molecular target: Histamine H2 receptor (Homo sapiens) (UniProt P25021); conditions: Compound concentration 10.0 uM
Chain of Histamine H2 receptor (Homo sapiens) (P25021 whole entry): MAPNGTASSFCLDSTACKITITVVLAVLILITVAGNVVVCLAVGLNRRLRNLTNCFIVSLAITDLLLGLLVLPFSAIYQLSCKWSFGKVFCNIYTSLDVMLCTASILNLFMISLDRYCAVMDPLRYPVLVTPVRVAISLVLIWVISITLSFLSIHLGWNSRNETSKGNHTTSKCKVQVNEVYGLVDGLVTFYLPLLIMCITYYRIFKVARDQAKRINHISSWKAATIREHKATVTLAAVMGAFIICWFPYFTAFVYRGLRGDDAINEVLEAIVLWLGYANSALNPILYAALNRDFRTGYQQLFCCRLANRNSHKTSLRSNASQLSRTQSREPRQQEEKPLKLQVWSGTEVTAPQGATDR

[19] = molecular target: Vasopressin V1a receptor (Homo sapiens) (UniProt P37288); experiment: V1A/HUM Eurofins SafetyScreen44 (BI); conditions: Compound concentration 10.0 uM
[20] = molecular target: Histamine H3 receptor (Homo sapiens) (UniProt Q9Y5N1); conditions: Compound concentration 10.0 uM
Chain of Histamine H3 receptor (Homo sapiens) (Q9Y5N1 whole entry): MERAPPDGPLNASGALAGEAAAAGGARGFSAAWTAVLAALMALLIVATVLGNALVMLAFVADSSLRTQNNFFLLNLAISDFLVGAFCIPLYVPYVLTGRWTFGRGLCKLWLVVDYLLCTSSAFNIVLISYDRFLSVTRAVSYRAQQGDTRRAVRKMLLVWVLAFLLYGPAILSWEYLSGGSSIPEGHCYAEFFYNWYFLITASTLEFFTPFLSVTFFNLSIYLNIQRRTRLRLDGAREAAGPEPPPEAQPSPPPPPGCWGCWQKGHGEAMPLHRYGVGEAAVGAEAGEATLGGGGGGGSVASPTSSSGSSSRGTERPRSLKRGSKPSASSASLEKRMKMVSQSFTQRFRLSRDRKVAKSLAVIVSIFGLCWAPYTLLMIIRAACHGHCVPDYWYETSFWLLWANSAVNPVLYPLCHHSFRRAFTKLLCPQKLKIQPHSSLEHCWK

[21] = molecular target: Adenosine receptor A2a (Homo sapiens) (UniProt P29274); experiment: A2A/H Eurofins SafetyScreen44 (BI); conditions: filed as antagonist, Compound concentration 10.0 uM
[22] = molecular target: Glutamate NMDA receptor (Rattus norvegicus) (UniProt P35439+Q00959+Q00960+Q00961+Q62645+Q8VHN2+Q9R1M7); experiment: NMDA/R Eurofins SafetyScreen44 (BI); format: protein-complex assay; conditions: Compound concentration 10.0 uM
[23] = molecular target: 5-hydroxytryptamine receptor 1D (Homo sapiens) (UniProt P28221); conditions: Compound concentration 10.0 uM
Chain of 5-hydroxytryptamine receptor 1D (Homo sapiens) (P28221 whole entry): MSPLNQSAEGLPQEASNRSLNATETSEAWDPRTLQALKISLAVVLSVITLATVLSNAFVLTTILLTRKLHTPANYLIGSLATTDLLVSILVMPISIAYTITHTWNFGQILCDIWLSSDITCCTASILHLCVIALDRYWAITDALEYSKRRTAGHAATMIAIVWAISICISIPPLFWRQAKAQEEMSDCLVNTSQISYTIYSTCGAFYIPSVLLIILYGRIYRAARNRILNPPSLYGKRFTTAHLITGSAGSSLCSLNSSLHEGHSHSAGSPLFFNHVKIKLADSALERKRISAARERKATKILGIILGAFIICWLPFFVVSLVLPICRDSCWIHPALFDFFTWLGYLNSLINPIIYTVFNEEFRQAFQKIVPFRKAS

[24] = molecular target: T2, Muscarinic acetylcholine receptor M1 (Homo sapiens) (UniProt P11229); experiment: M1/H Eurofins SafetyScreen44 (BI); conditions: Compound concentration 10.0 uM
T2 sequence (whole entry): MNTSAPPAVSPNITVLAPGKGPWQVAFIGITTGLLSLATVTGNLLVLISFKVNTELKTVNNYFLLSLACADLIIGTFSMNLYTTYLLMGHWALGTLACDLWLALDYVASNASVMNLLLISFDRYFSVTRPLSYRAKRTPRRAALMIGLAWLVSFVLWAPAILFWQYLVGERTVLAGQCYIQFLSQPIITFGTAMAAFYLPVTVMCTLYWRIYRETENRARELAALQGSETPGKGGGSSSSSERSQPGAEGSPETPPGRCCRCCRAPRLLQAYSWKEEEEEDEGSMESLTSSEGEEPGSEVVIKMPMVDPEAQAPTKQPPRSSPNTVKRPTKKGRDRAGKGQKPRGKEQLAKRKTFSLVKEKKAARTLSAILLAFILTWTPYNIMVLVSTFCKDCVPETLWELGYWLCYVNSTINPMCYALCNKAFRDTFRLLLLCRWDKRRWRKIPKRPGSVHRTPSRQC

Rattus norvegicus = organism: Rattus norvegicus; conditions: Compound concentration 10.0 uM
[25] = molecular target: Delta-type opioid receptor (Homo sapiens) (UniProt P41143); conditions: Compound concentration 10.0 uM
[26] = molecular target: 5-hydroxytryptamine receptor 2B (Homo sapiens) (UniProt P41595); experiment: 5HT2B/H AG Eurofins SafetyScreen44 (BI); conditions: filed as agonist, Compound concentration 10.0 uM

inhibition [4] [%]	inhibition [5] [%]	inhibition [6] [%]	inhibition [7] [%]	inhibition [8] [%]	inhibition [10] [%]	inhibition [11] [%]	inhibition [12] [%]	inhibition [18] [%]	inhibition [20] [%]	SMILES	residual activity [1] [%]	residual activity [2] [%]	residual activity [3] [%]	residual activity [9] [%]	residual activity [13] [%]	residual activity [14] [%]	residual activity [15] [%]	residual activity [16] [%]	residual activity [17] [%]	residual activity [19] [%]	also measured
9.62	4.94	-4.71	8.17	3.4	-1.34	7.03	8.66	-3.03	0.98	CCn1c(=O)c(C)cn(Cc2nnc(-c3ccc(F)c(O)c3F)s2)c1=O	99	99	102	113	109	95	82	88	94	100	residual activity [21]: 103%; residual activity [22]: 104%; inhibition [23]: 6.08%; residual activity [24]: 99%; inhibition (Rattus norvegicus): 23%; inhibition [25]: 9.87%; residual activity [26]: 83%
2.36	16.4	6.74	-6.46	3.37	5.29	-2.24	-3.42	-1.31	11	CCn1c(=O)c(C)cn(Cc2nnc(-c3ccc(F)c(OC)c3F)s2)c1=O	117	105	103	87	107	103	86	92	93	103	residual activity [21]: 81%; residual activity [22]: 103%; inhibition [23]: 15.8%; residual activity [24]: 100%; inhibition (Rattus norvegicus): -8.73%; inhibition [25]: -0.06%; residual activity [26]: 45%
